Laboratory results published in PubChem BioAssay (NCI).
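Cells were grown in 96-well plates and exposed to each compound for 48 hours at five concentrations; endpoints were interpolated linearly between bracketing concentrations, or set to the highest concentration if not reached. TGI: total growth inhibition.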

How the values were obtained:
Assay in all cases: growth of human tumour cells (NCI), 48 h
[1] = system: 786-0 renal
[2] = system: HOP-62 NSCLC
[3] = system: HT29 colon
[4] = system: U251 CNS
[5] = system: LXFL 529 NSCLC
[6] = system: DU-145 prostate
[7] = system: OVCAR-3 ovarian
[8] = system: NCI-H23 lung
[9] = system: HS 578T breast
[10] = system: SK-MEL-28 melanoma
[11] = system: OVCAR-8 ovarian
[12] = system: HCT-116 colon
[13] = system: OVCAR-5 ovarian
[14] = system: PC-3 prostate
[15] = system: COLO 205 colon
[16] = system: NCI-H522 lung
[17] = system: SW-620 colon
[18] = system: UO-31 renal
[19] = system: A498 renal
[20] = system: HOP-92 NSCLC
[21] = system: MDA-N
[22] = system: SNB-78 CNS
[23] = system: SR leukemia
[24] = system: LOX IMVI melanoma
[25] = system: SK-OV-3 ovarian
[26] = system: MCF7 breast
[27] = system: SK-MEL-5 melanoma
[28] = system: DMS 273 small cell lung
[29] = system: MDA-MB-435
[30] = system: KM20L2 colon
[31] = system: TK-10 renal
[32] = system: SNB-75 CNS
[33] = system: MDA-MB-231 breast
[34] = system: OVCAR-4 ovarian
[35] = system: RPMI-8226 leukemia
[36] = system: UACC-257 melanoma
[37] = system: CCRF-CEM leukemia
[38] = system: DMS 114 small cell lung
[39] = system: MOLT-4 leukemia
[40] = system: NCI/ADR-RES ovarian
[41] = system: ACHN renal
[42] = system: CAKI-1 renal
[43] = system: RXF 393 renal
[44] = system: NCI-H226 lung
[45] = system: BT-549 breast
[46] = system: UACC-62 melanoma
[47] = system: KM12 colon
[48] = system: HCC-2998 colon
[49] = system: SF-268 CNS
[50] = system: EKVX NSCLC
[51] = system: SN12C renal
[52] = system: HL-60(TB) leukemia
[53] = system: SNB-19 CNS
[54] = system: M14 melanoma
[55] = system: DLD-1 colon
[56] = system: MALME-3M melanoma
[57] = system: K-562 leukemia
[58] = system: IGROV1 ovarian
[59] = system: HCT-15 colon
[60] = system: NCI-H460 lung
[61] = system: SK-MEL-2 melanoma
[62] = system: SF-295 CNS
[63] = system: T-47D breast
[64] = system: A549 NSCLC
[65] = system: M19-MEL melanoma
[66] = system: SF-539 CNS

Cc1c2ccc3ccccc3c2c[n+]2ccccc12
TGI [1]: 25.8 µM
TGI [2]: 45.7 µM
TGI [3]: > 100 µM
TGI [4]: 15.6 µM
TGI [5]: 24.2 µM
TGI [6]: > 76 µM
TGI [7]: 35.4 µM
TGI [8]: 15.3 µM
TGI [9]: 14.9 µM
TGI [10]: 28.7 µM
TGI [11]: 39.6 µM
TGI [12]: > 83.3 µM
TGI [13]: > 100 µM
TGI [14]: > 100 µM
TGI [15]: 16.5 µM
TGI [16]: 14.7 µM
TGI [17]: 80.5 µM
TGI [18]: 60.6 µM
TGI [19]: > 94.4 µM
TGI [20]: 60.8 µM
TGI [21]: 19.8 µM
TGI [22]: > 100 µM
TGI [23]: 53.5 µM
TGI [24]: > 78.4 µM
TGI [25]: 83.2 µM
TGI [26]: > 87.3 µM
TGI [27]: 21.9 µM
TGI [28]: > 50.2 µM
TGI [29]: 35.2 µM
TGI [30]: > 64.1 µM
TGI [31]: > 100 µM
TGI [32]: 14.3 µM
TGI [33]: > 82.3 µM
TGI [34]: 38.8 µM
TGI [35]: 66.2 µM
TGI [36]: 23.8 µM
TGI [37]: 37.2 µM
TGI [38]: 20.7 µM
TGI [39]: 48.7 µM
TGI [40]: > 100 µM
TGI [41]: > 100 µM
TGI [42]: > 100 µM
TGI [43]: > 84.4 µM
TGI [44]: 20.1 µM
TGI [45]: 14.3 µM
TGI [46]: 33.9 µM
TGI [47]: 12 µM
TGI [48]: 17.7 µM
TGI [49]: 6.92 µM
TGI [50]: > 44.1 µM
TGI [51]: 13.4 µM
TGI [52]: > 75.6 µM
TGI [53]: 23.1 µM
TGI [54]: 37.5 µM
TGI [55]: > 100 µM
TGI [56]: 3.77 µM
TGI [57]: 54.6 µM
TGI [58]: > 100 µM
TGI [59]: > 100 µM
TGI [60]: 40.2 µM
TGI [61]: 31 µM
TGI [62]: 24.8 µM
TGI [63]: 5.09 µM
TGI [64]: > 100 µM
TGI [65]: 15.9 µM
TGI [66]: 43.4 µM
